Columns and labels:
Phosphodiesterase 4 = Phosphodiesterase 4 (Homo sapiens, UniProt P27815+Q08499+Q07343+Q08493); assay: Inhibitory activity on human eosinophil phosphodiesterase 4.; type: protein assay
U-937 = assay: Arbitary maximal response for cAMP elevation from baseline level was evaluated in Human U-937 cells; type: functional, cell-based
[1] = Compound tested for plasma levels in monkeys dosed at 10 mg/kg, po; type: ADME, organism-based; design: dose 10 mg/kg, route oral; conditions: monkey, in vivo, read-out: Plasma level
Cavia porcellus = assay: Effect on Aerosolized Antigen Induced Airway Obstruction (AAIAO) in guinea pig after oral dose; type: functional
Monkey [2] = assay: Percent Eosinophil inhibition in monkeys at 10 mg/kg oral dose; type: functional; conditions: Cercopithecidae, in Primates
Monkey [3] = assay: Percent cytokine IL-8 inhibition in monkeys at 10 mg/kg oral dose; type: functional; conditions: Cercopithecidae, in Primates
Monkey [4] = assay: Percent cytokine TNF inhibition in monkeys at 10 mg/kg oral dose; type: functional; conditions: Cercopithecidae, in Primates
[5] = molecular target: Phosphodiesterase 3 (Homo sapiens) (UniProt Q14432+Q13370); assay: Inhibition of PDE3 from human heart at 100 uM; type: protein assay
[6] = molecular target: Phosphodiesterase 1 (Homo sapiens) (UniProt P54750+Q01064+Q14123); assay: Inhibition of Phosphodiesterase 1 from human cardiac ventricle at 10 uM; type: protein assay
[7] = molecular target: cGMP-specific 3',5'-cyclic phosphodiesterase (Homo sapiens) (UniProt O76074); assay: Inhibition of Phosphodiesterase 5 from human corpus cavernosum at 1 uM
[8] = molecular target: cGMP-specific 3',5'-cyclic phosphodiesterase (Homo sapiens) (UniProt O76074); assay: Inhibition of Phosphodiesterase 5 from human corpus cavernosum at 10 uM
Monkey [9] = assay: Percent cytokine inhibition in monkeys at 10 mg/kg oral dose; type: functional; conditions: Cercopithecidae, in Primates

Structure (SMILES)	IC50 (Phosphodiesterase 4) [nM]	EC50 (U-937) [nM]	also measured
CCc1nn(-c2ccc(F)cc2)c2c1CCN(c1ccc(OC)cc1)C2=O	6040	6250	
CCc1nn(C2CCCC2)c2c1CCN(Cc1ccccc1)C2=O	420	36	
COc1ccc(C2CNC(=O)C2)cc1OC1CCCC1 (stereo not drawn) [ROLIPRAM]		1230	concentration [1]: 910 nM; ED50 (Cavia porcellus): 0.6 mg/kg; inhibition in vivo at 10 mg/kg (Monkey [2]): 49.4%; inhibition in vivo at 10 mg/kg (Monkey [3]): 84%; inhibition in vivo at 10 mg/kg (Monkey [4]): 33.4%
CCc1nn(C2CCCC2)c2c1CCN(c1ccccn1)C2=O	1640		
CCc1nn(-c2ccc(F)cc2)c2c1CCN(c1ccc(C)cc1)C2=O	2240	500	
CCCc1nn(-c2ccc(F)cc2)c2c1CCN(c1ccc(OC)cc1)C2=O	84900	11000	
CCCCc1nn(-c2ccc(F)cc2)c2c1CCN(c1ccccc1)C2=O	84700	13000	
CCc1nn(-c2ccc(F)cc2)c2c1CCN(c1cccc(OC)c1)C2=O	490		
CCc1nn(-c2ccc(F)cc2)c2c1CCN(c1ccccc1C)C2=O	890		
COc1ccc(C(=O)Nc2c(Cl)cncc2Cl)cc1OC1CCCC1		40	
CCc1nn(C2CCC2)c2c1CCN(c1cccc(OC)c1)C2=O	150	520	
CCc1nn(-c2ccc(F)cc2)c2c1CCN(c1ccccc1)C2=O	1640	880	ED50 (Cavia porcellus): 4.3 mg/kg; inhibition [5]: 33%; inhibition [6]: 2%; inhibition [7]: 1%; inhibition [8]: 50%
COc1ccc([C@H](Cc2ccncc2)c2ccccc2)cc1OC1CCCC1 [CDP840]	670	290	
COc1ccc([C@]2(C#N)CC[C@@H](C(=O)O)CC2)cc1OC1CCCC1 [CILOMILAST]		3630	
CCc1nn(C2CCCC2)c2c1CCN(c1ccsc1)C2=O	660	36	
CCc1nn(C2CCS(=O)(=O)C2)c2c1CCN(c1cccc(OC)c1)C2=O (stereo not drawn)	460	5270	
CCc1nn(C2CCCC2)c2c1CCN(c1ccccc1C)C2=O	440	330	concentration [1]: 280 nM; ED50 (Cavia porcellus): 2 mg/kg; inhibition in vivo at 10 mg/kg (Monkey [2]): 55.2%; inhibition in vivo at 10 mg/kg (Monkey [9]): 82.1%; inhibition [5]: 9%; inhibition [6]: 8%; inhibition [7]: 7%; inhibition [8]: 21%
CCc1nn(-c2ccc(F)cc2)c2c1CCN(c1cccc(C)c1)C2=O	270	780	
CCc1nn(-c2ccc(F)cc2)c2c1CCN(c1ccccc1OC)C2=O	1080	3210	
CCc1nn(C2CCCC2)c2c1CCN(c1cccnc1)C2=O	160	17	
CCc1nn(C2CCCC2)c2c1CCN(c1cccc(OC)c1)C2=O	34	330	
CCc1nn(C2CCCC2)c2c1CCN(c1cccs1)C2=O	63	1	
CCc1nn(C2CCCCC2)c2c1CCN(c1cccc(OC)c1)C2=O	48	980	
COc1ccc(N2CCc3c(C)nn(-c4ccc(F)cc4)c3C2=O)cc1	15700		
CCc1nn(C2CCCC2)c2c1CCN(c1ccccc1)C2=O	160	70	
CCc1nn(C2CCCC2)c2c1CCN(c1cccc(Cl)c1)C2=O	39	41	
